These results are taken from article PMC10421376, “Simultaneous Determination of Five Iridoids of Picrorhiza scrophulariiflora in Rat Plasma Using UHPLC-ESI-MS/MS” (Molecules, 2023).

Each structure is given as a SMILES string. Like-named read-outs stand apart in the source and are kept apart here.

Data set [1] in a line: Stability of the analytes in rat plasma QC samples under storage and processing conditions. It is filed as in vitro ADME. The conditions noted are these: n = 6; for Short-Term Stability RE: room temperature 4 h; for Freeze-Thaw RE: three freeze-thaw cycles −20 °C/room temperature; for Long-Term Stability RE: −20 °C two weeks. As for the experimental part:
Stability refers to the chemical stability of the sample being tested in a given medium under certain external conditions. We obtained 100 µL of rat blank plasma and prepared low, medium, and high concentrations of the QC sample standard solutions, Picroside-I, Picroside-II, Picroside-III, minecoside, and sweroside, according to the method described in Section 3.3. As simulated biological samples, the following conditions were investigated: (1) Short-term stability (QC samples were left at room temperature for 4 h, which exceeded the sample preparation time); (2) long-term stability (QC samples were left at −20 °C for two weeks); (3) freeze-thaw stability (three freeze-thaw cycles at −20 °C/room temperature) and post-preparation stability (QC samples were left in a 4 °C auto sampling chamber for 24 h).

The nature of data set [2]: Pharmacokinetics of five iridoids in rat plasma after oral administration of PS extract (UHPLC-ESI-MS/MS). It is filed as in vivo, SD (Sprague Dawley) rats. As for the experimental part:
Six adult male SD (Sprague Dawley) rats (220–250 g) were purchased from the Animal Experiment Center of Heilongjiang University of Chinese Medicine. The Animal Ethics Committee of Harbin Medical University approved the experimental protocol, which conformed to the principles for the Care and Use of Laboratory Animals. The experimental animals were fed under the following conditions: room temperature (20–25 °C), relative humidity (40–60%), 12 h of alternating day and night lighting, 12 h of fasting before the experiment, and free access to water. We calculated the dosage of SD rats using the standardized formula for body surface area (BSA). According to the Chinese Pharmacopoeia, the dosage of PS raw medicine for human use is 10 g. The dosage for rats is 0.9 g/kg.
The dried PS powder weighed 200 g and was extracted with eight times the amount of 75% ethanol at reflux three times for 2 h each time. The extracts were combined, filtered, distilled under reduced pressure until the alcoholic taste disappeared, and lyophilized with water. In our previous laboratory experiments, we used HPLC to determine the content of five analytes, namely Picroside-I (15.68 mg/g), Picroside-II (103.64 mg/g), Picroside-III (64.08 mg/g), minecoside (2.02 mg/g), and sweroside (12.28 mg/g). After freeze-drying, we dissolved the solid in a 5% sodium carboxymethyl cellulose solution and prepared a medicinal extract solution with a concentration of 0.3 g/mL.
A dose of 1 g/kg of body weight was administered to rats according to the pharmacopoeia and previous content results for the five analytes. Rat tail vein blood samples were collected in heparinized tubes before and 0.167, 0.333, 0.5, 0.75, 1, 2, 4, 6, 8, and 12 h after administration and centrifuged at 3500 rpm for 10 min. We obtained 100 µL of the upper layer of plasma and stored it at −20 °C for measurement.
The plasma samples were treated according to the method described in Section 3.3. The plasma samples were determined according to the chromatographic conditions described in Section 3.4 and chromatograms were recorded. The measured peak area ratios of the substances being measured and the IS were substituted into the accompanying standard curves on the same day. We also calculated the blood concentrations of Picroside-I (15.68 mg/g), Picroside-II (103.64 mg/g), Picroside-III (64.08 mg/g), minecoside (2.02 mg/g), and sweroside (12.28 mg/g), respectively. We determined the QC samples at the same time, allowing a maximum of two different concentrations of QC samples to exceed the theoretical value of ±15% of the RE% value.
The peak areas of Picroside-I, Picroside-II, Picroside-III, minecoside, sweroside, and IS in each sample were recorded. We calculated and substituted their ratios into the standard curve equation to obtain corresponding concentrations for the five substances being measured in the plasma of SD rats. The blood concentration data of each rat were processed separately to calculate the relevant pharmacokinetic parameters, and the mean and standard deviation of the parameters were further calculated. We calculated and plotted pharmacokinetic parameters including concentration–time curves (AUC0–t, AUC0–∞), average residence time (MRT), maximum plasma concentration (Cmax), time to reach the maximum concentration (Tmax), and half-time (t1/2) using pharmacokinetic software (DAS 2.0) with a non-atrial chamber model for blood concentration–time curves. All parameters were expressed as mean ± SD.

The next data set has as its system CXCR4. Set-up: method as in PMID 32016931. The conditions noted are these: breast cancer cells; cited from earlier work.
The test system of a further data set is hyaluronidase. The conditions noted are these: cited from earlier work.
The test system of the next data set is H9c2. The following applies: cardiac cell line H9c2; cited from earlier work.
On the set-up of data set [3]: method as in PMID 27498779. The following applies: mice, bile stasis-induced liver injury; cited from earlier work.
Where [4] appears, read: male, Sprague-Dawley, rat, in vivo, po, 1 g/kg.
Where [5] appears, read: rat plasma, oral PS extract 1 g/kg, n = 6, mean ± SD.

A word on the Cmax: it is the maximum level reached in the sampled fluid or tissue. As a reminder, the Tmax is the time at which the peak concentration occurs. In the case of `O=C(/C=C/c1ccccc1)OC[C@H]1O[C@@H](O[C@@H]2OC=C[C@H]3[C@H](O)[C@@H]4O[C@]4(CO)[C@@H]23)[C@H](O)[C@@H](O)[C@@H]1O` [Picroside-I], in data set [1] (high QC), the “Short-Term Stability RE” value was determined as 6.58%, the “Freeze-Thaw RE” value is −1.94% and the “Long-Term Stability RE” value came out at 3.59%. Also, in data set [1] (low QC), the “Short-Term Stability RE” value was found to be 8.93%, the “Freeze-Thaw RE” value is reported as 6.43% and the “Long-Term Stability RE” value came to 5.60%. Besides, in data set [1] (medium QC), the “Short-Term Stability RE” value came out at 3.83%, the “Freeze-Thaw RE” value was −2.74% and the “Long-Term Stability RE” value is on record as −5.69%. Moreover, in data set [2] (setting [4]), the AUC(0-inf) amounted to 382 ± 29.4 ng·h/mL, the AUC(0-t) worked out at 361 ± 25.6 ng·h/mL, the Cl came out at 607.2 ± 290.6 mL/min/kg and the Cmax was 114 ± 16.1 ng/mL. For the same compound, in data set [2] (setting [4]), the MRT last came to 3.6 ± 0.2 h, the time to peak (Tmax) amounted to 1.1 ± 0.2 h, the Vd was determined as 186.7 ± 17.436 L/kg and the half-life is 2.4 ± 0.3 h.

On to `COc1ccc(/C=C/C(=O)O[C@H]2[C@@H]3C=CO[C@@H](O[C@@H]4O[C@H](CO)[C@@H](O)[C@H](O)[C@H]4O)[C@@H]3[C@@]3(CO)O[C@@H]23)cc1O` [Minecoside, minecoside], for which, in the data set with CXCR4, the “Effect on CXCR4 expression” value is given as “inhibits the expression of CXCR4”. In data set [2] (setting [4]), this compound gave an AUC(0-inf) of 93.5 ± 22.6 ng·h/mL, an AUC(0-t) of 78.9 ± 10.2 ng·h/mL, a Cl of 119.1 ± 39.7 mL/min/kg and a peak concentration (Cmax) of 21.1 ± 7.8 ng/mL. Moreover, in data set [2] (setting [4]), the MRT last worked out at 4.1 ± 0.7 h, the Tmax was 1 ± 0.2 h, the Vd turned out to be 19.26 ± 4.77 L/kg and the half-life was 5 ± 2.3 h. For the same compound, the Hyaluronidase inhibitory activity entry in the data set with hyaluronidase was “hyaluronidase inhibitory activity”.

For `COc1cc(C(=O)O[C@H]2[C@@H]3C=CO[C@@H](O[C@@H]4O[C@H](CO)[C@@H](O)[C@H](O)[C@H]4O)[C@@H]3[C@@]3(CO)O[C@@H]23)ccc1O` [Picroside-II], in data set [1] (high QC), the “Short-Term Stability RE” value turned out to be 4.47%, the “Freeze-Thaw RE” value is listed as −1.47% and the “Long-Term Stability RE” value is −2.19%. In data set [1] (low QC), the “Short-Term Stability RE” value is on record as −4.99%, the “Freeze-Thaw RE” value is reported as 7.08% and the “Long-Term Stability RE” value is recorded as 8.69%. In addition, in data set [1] (medium QC), the “Short-Term Stability RE” value is recorded as 8.53%, the “Freeze-Thaw RE” value was −7.21% and the “Long-Term Stability RE” value is recorded as 1.37%. In data set [2] (male, Sprague-Dawley, rat, in vivo, po), this compound registered an AUC(0-t) of 604 ± 239 ng·h/mL. In data set [2] (setting [4]), this compound had an AUC(0-inf) of 611 ± 246 ng·h/mL, an AUC(0-t) of 604 ± 239 ng·h/mL, a Cl of 2873.3 ± 999.3 mL/min/kg and a maximum concentration (Cmax) of 336 ± 92.3 ng/mL. For the same compound, in data set [2] (setting [4]), the MRT last turned out to be 2.3 ± 0.5 h, the Tmax was 1.1 ± 0.1 h, the Vd turned out to be 796 ± 503.5 L/kg and the half-life was 2.3 ± 1.5 h.

For the compound `C=C[C@H]1[C@H](O[C@@H]2O[C@H](CO)[C@@H](O)[C@H](O)[C@H]2O)OC=C2C(=O)OCC[C@H]21` [Sweroside, sweroside], the AUC(0-t) in data set [2] (male, Sprague-Dawley, in vivo, rat plasma, oral PS extract 1 g/kg, n = 6, mean ± SD, read-out: AUC0–t) is 261 ± 65.3 ng·h/mL. For the same compound, the AUC(0-inf) in data set [2] (male, Sprague-Dawley, in vivo, rat plasma, oral PS extract 1 g/kg, n = 6, mean ± SD, read-out: AUC0–∞) stood at 268 ± 70.8 ng·h/mL. Besides, in data set [2] (male, Sprague-Dawley, in vivo, rat plasma, oral PS extract 1 g/kg, n = 6, mean ± SD, read-out: Cmax), the Cmax amounted to 63.7 ± 17.6 ng/mL. Further, in data set [2] (male, Sprague-Dawley, in vivo, rat plasma, oral PS extract 1 g/kg, n = 6, mean ± SD, read-out: MRT0–t), the MRT last was 3.9 ± 0.3 h. For the same compound, the Tmax in data set [2] (male, Sprague-Dawley, in vivo, rat plasma, oral PS extract 1 g/kg, n = 6, mean ± SD, read-out: Tmax) came to 2.1 ± 0.1 h. Moreover, the half-life in data set [2] (male, Sprague-Dawley, in vivo, rat plasma, oral PS extract 1 g/kg, n = 6, mean ± SD, read-out: t1/2 (converted)) was 1.2 ± 0.3 h. In data set [2] (setting [5]), this compound displayed a Cl of 2015 ± 615.8 mL/min/kg and a Vd of 785.1 ± 130.6 L/kg. Also, in the data set with H9c2, the “Effect on aconitine toxicity to myoblasts” value is given as “reduce aconitine’s toxicity”. The “Effect on pro-inflammatory responses and bile acid levels” value in data set [3] is “improves pro-inflammatory responses and bile acid levels”.
